Experimental data: US4291053A, “Agent to be administered orally to domestic animals without cellulose digestion in the rumen” (Hoechst Aktiengesellschaft, priority 1976, dated 1981)
Values after ≈ are worked out from the molar mass of the structure shown.

Columns and labels:
[1] = Piglet test S 83/75: incidence of diarrhea in feeding test (Example 1); format: in vivo, piglets
Description: A feeding test using Salinomycin was carried out on 78 piglets which were kept in boxes with 4 (or 3) animals each. At the beginning of the test, the animals were about 4 weeks old. Four replicates formed one group, and the following treatments were carried out:
1st group: untreated control group
2nd group: Salinomycin as raw product 25 mg/kg of fodder
3rd group: Salinomycin as raw product 50 mg/kg of fodder
4th group: Salinomycin as mycelium 50 mg/kg of fodder
5th group: comparison preparation A 50 mg/kg of fodder (5-Nitromidazol)
The basic feed had the following composition:
The occurrence of diarrhea in the individual boxes (sub-groups) was registered in the test periods of 14 days each and in the total test run of 56 days.

[2] = Feeding test with Salinomycin as mycelium: growth and feed efficiency in early weaned piglets (Example 3); format: in vivo; conditions: for Feed efficiency per animal, relative / Weight gain per animal, relative: relative to control
Description: A feeding test using Salinomycin as a mycelium was carried out on 47 piglets weaned at an early age (4 weeks old) which were kept in sub-groups comprising 4 and 3 animals, respectively. The initial weight was 9.8 kg on an average. The feed ration indicated in Example 1 served as basic feed.
4 Sub-groups comprising 15 animals altogether formed the untreated control group. 4 Sub-groups comprising 16 animals altogether were given 50 mg of Salinomycin as a mycelium per kg of feed, and 4 sub-groups comprising 16 animals altogether were given 50 mg of a comparison preparation A (5-Nitroimidazol) per kg of feed. The test period was 8 weeks, with individual weighing at intervals of 2 weeks.

[3] = Feeding test with Salinomycin as raw product: growth and feed efficiency in early weaned piglets (Example 2); format: in vivo; conditions: for statistical significance of the improvement (weight gain and feed efficiency): vs control; for Feed efficiency per animal, relative / Weight gain per animal, relative: relative to control
Description: A feeding test using Salinomycin as a raw product was carried out on 46 piglets weaned at an early age (4 weeks old) that were kept in sub-groups comprising 3 or 4 animals.
Initial weight: 9.8 kg on an average. The feed ration indicated in Example 1 served as basic feed.
4 Sub-groups comprising 15 animals altogether formed the untreated control group. 4 Sub-groups comprising 16 animals altogether were given 25 mg of Salinomycin as raw product per kg of feed, and 4sub-groups comprising 15 animals altogether were given 50 mg of Salinomycin per kg of feed in the form of the raw product. The test period was 8 weeks, with individual weighing at intervals of 2 weeks.

[4] = system: specified microorganisms; conditions: antibacterial spectrum, J. Antibiotics 1974; cited from earlier work
[5] = system: Treponema hyodysenteriae; assay: Minimum inhibiting concentration against Treponema hyodysenteriae, agar diffusion test with dilution series; format: cell-based
Description: In order to detect the surprising effect on Treponema hyodysenteriae, this microorganism was cultivated according to the method of Harris on a trypticase-soy-agar using an addition of horse blood of 5% in a CO2 /H2 atmosphere, and the minimum inhibiting concentration of Salinomycin was determined in the agar diffusion test, while using the corresponding dilution series, as compared against commercial preparations showing a particularly good effect in dysentery diseases.

[6] = 50 mg per kg of feed as mycelium, 8 weeks
[7] = 50 ppm (Salinomycin as mycelium), 2 weeks
[8] = 50 ppm (Salinomycin as mycelium), 4 weeks
[9] = 50 ppm (Salinomycin as mycelium), 6 weeks
[10] = 50 ppm (Salinomycin as mycelium), 8 weeks
[11] = raw product 25 ppm, 8 weeks, ++ 99% significance
[12] = raw product 50 ppm, 8 weeks, +++ 99.9% significance

CC[C@@H](C(=O)[C@@H](C)[C@@H](O)[C@H](C)[C@@H]1O[C@@H]([C@@H](CC)C(=O)O)CC[C@@H]1C)[C@H]1O[C@]2(C=C[C@@H](O)[C@]3(CC[C@@](C)([C@H]4CC[C@](O)(CC)[C@H](C)O4)O3)O2)[C@H](C)C[C@@H]1C [Salinomycin]
Incidence of diarrhea, per cent of test days ([1]; 50 ppm (Salinomycin as mycelium), 1st and 2nd week): 19.6%
Incidence of diarrhea in test days ([1]; 50 ppm (Salinomycin as mycelium), 1st and 2nd week, of 56 test days): 11 days
Incidence of diarrhea, per cent of test days ([1]; 50 ppm (Salinomycin as mycelium), 1st through 8th week): 10.7%
Incidence of diarrhea in test days ([1]; 50 ppm (Salinomycin as mycelium), 1st through 8th week, of 224 test days): 24 days
Incidence of diarrhea, per cent of test days ([1]; 50 ppm (Salinomycin as mycelium), 3rd and 4th week): 5.4%
Incidence of diarrhea in test days ([1]; 50 ppm (Salinomycin as mycelium), 3rd and 4th week, of 56 test days): 3 days
Incidence of diarrhea, per cent of test days ([1]; 50 ppm (Salinomycin as mycelium), 5th and 6th week): 7.1%
Incidence of diarrhea in test days ([1]; 50 ppm (Salinomycin as mycelium), 5th and 6th week, of 56 test days): 4 days
Incidence of diarrhea, per cent of test days ([1]; 50 ppm (Salinomycin as mycelium), 7th and 8th week): 10.7%
Incidence of diarrhea in test days ([1]; 50 ppm (Salinomycin as mycelium), 7th and 8th week, of 56 test days): 6 days
influence on the incidence of diarrhea ([1]; depending on the dosage, against untreated control and comparison preparation): very good influence on the incidence of diarrhea
Incidence of diarrhea, per cent of test days ([1]; raw product 25 ppm, 1st and 2nd week): 48.2%
Incidence of diarrhea in test days ([1]; raw product 25 ppm, 1st and 2nd week, of 56 test days): 27 days
Incidence of diarrhea, per cent of test days ([1]; raw product 25 ppm, 1st through 8th week): 60.3%
Incidence of diarrhea in test days ([1]; raw product 25 ppm, 1st through 8th week, of 224 test days): 135 days
Incidence of diarrhea, per cent of test days ([1]; raw product 25 ppm, 3rd and 4th week): 46.6%
Incidence of diarrhea in test days ([1]; raw product 25 ppm, 3rd and 4th week, of 56 test days): 26 days
Incidence of diarrhea, per cent of test days ([1]; raw product 25 ppm, 5th and 6th week): 69.6%
Incidence of diarrhea in test days ([1]; raw product 25 ppm, 5th and 6th week, of 56 test days): 39 days
Incidence of diarrhea, per cent of test days ([1]; raw product 25 ppm, 7th and 8th week): 76.8%
Incidence of diarrhea in test days ([1]; raw product 25 ppm, 7th and 8th week, of 56 test days): 43 days
Incidence of diarrhea, per cent of test days ([1]; raw product 50 ppm, 1st and 2nd week): 12.5%
Incidence of diarrhea in test days ([1]; raw product 50 ppm, 1st and 2nd week, of 56 test days): 7 days
Incidence of diarrhea, per cent of test days ([1]; raw product 50 ppm, 1st through 8th week): 19.1%
Incidence of diarrhea in test days ([1]; raw product 50 ppm, 1st through 8th week, of 224 test days): 43 days
Incidence of diarrhea, per cent of test days ([1]; raw product 50 ppm, 3rd and 4th week): 12.5%
Incidence of diarrhea in test days ([1]; raw product 50 ppm, 3rd and 4th week, of 56 test days): 7 days
Incidence of diarrhea, per cent of test days ([1]; raw product 50 ppm, 5th and 6th week): 28.6%
Incidence of diarrhea in test days ([1]; raw product 50 ppm, 5th and 6th week, of 56 test days): 16 days
Incidence of diarrhea, per cent of test days ([1]; raw product 50 ppm, 7th and 8th week): 23.2%
Incidence of diarrhea in test days ([1]; raw product 50 ppm, 7th and 8th week, of 56 test days): 13 days
statistical significance of the improvement of the feed efficiency [2, 6]: 99%
statistical significance of the improvement of the weight development [2, 6]: 99.9%
Daily weight gain per animal [2, 7]: 164 g
Feed efficiency per animal, absolute [2, 7]: 1.983
Weight gain per animal, absolute [2, 7]: 2.3 kg
Feed efficiency per animal, relative [2, 7]: 100.0%
Weight gain per animal, relative [2, 7]: 100.0%
Daily weight gain per animal [2, 8]: 261 g
Feed efficiency per animal, absolute [2, 8]: 1.726
Weight gain per animal, absolute [2, 8]: 7.3 kg
Feed efficiency per animal, relative [2, 8]: 91.8%
Weight gain per animal, relative [2, 8]: 109.2%
Daily weight gain per animal [2, 9]: 332 g
Feed efficiency per animal, absolute [2, 9]: 1.723
Weight gain per animal, absolute [2, 9]: 13.6 kg
Feed efficiency per animal, relative [2, 9]: 92.6%
Weight gain per animal, relative [2, 9]: 108.1%
Daily weight gain per animal [2, 10]: 393 g
Feed efficiency per animal, absolute [2, 10]: 1.837
Weight gain per animal, absolute [2, 10]: 22.0 kg
Feed efficiency per animal, relative ([2]; 50 ppm (Salinomycin as mycelium, ++ 99% significance), 8 weeks): 93.2%
Weight gain per animal, relative ([2]; 50 ppm (Salinomycin as mycelium, +++ 99.9% significance), 8 weeks): 107.4%
statistical significance of the improvement (weight gain and feed efficiency) ([3]; raw product 25 mg per kg of feed): 99%
statistical significance of the improvement (weight gain and feed efficiency) ([3]; raw product 50 mg per kg of feed): 99.9%
Daily weight gain per animal ([3]; raw product 25 ppm, 2 weeks): 171 g
Feed efficiency per animal, absolute ([3]; raw product 25 ppm, 2 weeks): 1.900
Weight gain per animal, absolute ([3]; raw product 25 ppm, 2 weeks): 2.4 kg
Feed efficiency per animal, relative ([3]; raw product 25 ppm, 2 weeks): 95.8%
Weight gain per animal, relative ([3]; raw product 25 ppm, 2 weeks): 104.3%
Daily weight gain per animal ([3]; raw product 25 ppm, 4 weeks): 250 g
Feed efficiency per animal, absolute ([3]; raw product 25 ppm, 4 weeks): 1.800
Weight gain per animal, absolute ([3]; raw product 25 ppm, 4 weeks): 7.0 kg
Feed efficiency per animal, relative ([3]; raw product 25 ppm, 4 weeks): 95.7%
Weight gain per animal, relative ([3]; raw product 25 ppm, 4 weeks): 104.6%
Daily weight gain per animal ([3]; raw product 25 ppm, 6 weeks): 317 g
Feed efficiency per animal, absolute ([3]; raw product 25 ppm, 6 weeks): 1.802
Weight gain per animal, absolute ([3]; raw product 25 ppm, 6 weeks): 13.0 kg
Feed efficiency per animal, relative ([3]; raw product 25 ppm, 6 weeks): 96.9%
Weight gain per animal, relative ([3]; raw product 25 ppm, 6 weeks): 103.3%
Daily weight gain per animal ([3]; raw product 25 ppm, 8 weeks): 380 g
Feed efficiency per animal, absolute ([3]; raw product 25 ppm, 8 weeks): 1.898
Weight gain per animal, absolute ([3]; raw product 25 ppm, 8 weeks): 21.3 kg
Feed efficiency per animal, relative [3, 11]: 96.2%
Weight gain per animal, relative [3, 11]: 103.8%
Daily weight gain per animal ([3]; raw product 50 ppm, 2 weeks): 171 g
Feed efficiency per animal, absolute ([3]; raw product 50 ppm, 2 weeks): 1.900
Weight gain per animal, absolute ([3]; raw product 50 ppm, 2 weeks): 2.4 kg
Feed efficiency per animal, relative ([3]; raw product 50 ppm, 2 weeks): 95.8%
Weight gain per animal, relative ([3]; raw product 50 ppm, 2 weeks): 104.3%
Daily weight gain per animal ([3]; raw product 50 ppm, 4 weeks): 257 g
Feed efficiency per animal, absolute ([3]; raw product 50 ppm, 4 weeks): 1.750
Weight gain per animal, absolute ([3]; raw product 50 ppm, 4 weeks): 7.2 kg
Feed efficiency per animal, relative ([3]; raw product 50 ppm, 4 weeks): 93.0%
Weight gain per animal, relative ([3]; raw product 50 ppm, 4 weeks): 107.5%
Daily weight gain per animal ([3]; raw product 50 ppm, 6 weeks): 337 g
Feed efficiency per animal, absolute ([3]; raw product 50 ppm, 6 weeks): 1.698
Weight gain per animal, absolute ([3]; raw product 50 ppm, 6 weeks): 13.8 kg
Feed efficiency per animal, relative ([3]; raw product 50 ppm, 6 weeks): 91.3%
Weight gain per animal, relative ([3]; raw product 50 ppm, 6 weeks): 109.8%
Daily weight gain per animal ([3]; raw product 50 ppm, 8 weeks): 396 g
Feed efficiency per animal, absolute ([3]; raw product 50 ppm, 8 weeks): 1.821
Weight gain per animal, absolute ([3]; raw product 50 ppm, 8 weeks): 22.2 kg
Feed efficiency per animal, relative [3, 12]: 92.3%
Weight gain per animal, relative [3, 12]: 108.2%
effect against the specified microorganisms [4]: only an insiginificant or moderate effect
MIC ([5]; Brachyspira hyodysenteriae, read-out: Minimum inhibiting concentration (MIC)): 0.05 µg/mL (≈ 0.0666 µM)
effect on Treponema hyodysenteriae ([5]; compared against commercial preparations, Table 1): superior effect
